Values quoted from earlier work in US20060204571A1, “Stable compositions of bupropion or its pharmaceutically acceptable salts” (Sun Pharmaceutical Industries Limited, priority 2005, published 2006).

Conditions: background statement

## CC(NC(C)(C)C)C(=O)c1cccc(Cl)c1.Cl (racemic) [Bupropion hydrochloride, (±)-1-(3-chlorophenyl)-2-[(1,1-dimethylethyl)amino]-1-propanone hydrochloride]
  solubility in water (in words): water-soluble
